# Reference: patent US20240261268A1, “METHODS OF SLOWING AN INCREASE IN BRAIN VENTRICULAR VOLUME” (VANDA PHARMACEUTICALS INC., priority 2022, published 2024)
# How the values were obtained:
# [1] = system: adult subjects with relapsing MS; experiment: Phase III study: premature treatment discontinuation and deaths; format: in vivo
# Description: A total of 1468 subjects were screened. Of those, 1133 subjects were randomized (567 to ponesimod 20 mg and 566 to teriflunomide 14 mg) across 162 sites in 28 countries, and 1131 subjects received at least one dose of study drug. The disposition of subjects is summarized in Table 1 and a summary of reasons (primary reason) for treatment discontinuation are shown in Table 2. Overall treatment and study discontinuation were balanced across both treatment arms. A total of 6.5% and 2.5% of the subjects discontinued due to AEs or tolerability related reasons in ponesimod 20 mg and teriflunomide 14 mg, respectively, while 1.9% and 4.3% discontinued due to efficacy related reasons. There were 2 deaths reported during the study—both on teriflunomide 14 mg.
# [2] = system: adult subjects with relapsing MS; experiment: 12-lead ECG heart rate and first-dose monitoring on Day 1; format: in vivo, human
# Description: The incidence of treatment-emergent heart rate and rhythm (including hypotension) AESIs on Day 1 was higher in the ponesimod 20 mg arm (2.1%) than in the teriflunomide 14 mg arm (0.4%). However, the overall incidence of first dose AESI on Day 1 was low (2.1%) in ponesimod. None of these events were serious nor led to permanent discontinuation of study treatment. Discharge criteria at 4 hours post-dose were met for ca. 99% of subjects. […] ECG HR effect: nadir at 2 hours post-dose (siponimod—3-4 hours, fingolimod—around by 6 hours). Low incidence of low HR outliers (post-dose HR≤40 bpm), all 3 of them with a pre-treatment HR of <55 bpm, which is a known risk factor for post-dose bradycardia with SIP receptor modulators.
# The mean heart rate reduction compared to pre-dose reached a maximum for ponesimod 20 mg at 2-hours post dose, −8.7 bpm compared to −1.7 bpm for teriflunomide 14 mg (FIG. 2).
# [3] = system: adult subjects with relapsing MS; experiment: MRI-based scaled brain ventricular volume (lateral + 3rd ventricle / ICV); format: in vivo, human
# Description: Efficacy variable/timepoint: The endpoint was increase in ventricular volume up to the end of study (EOS). All available data up to EOS, regardless of treatment discontinuation was included (ITT approach).
# Ventricular Volume (VV) data were obtained from MRI images from patients that participated in the OPTIMUM study. Data were obtained from those patients who had MRI imagines at baseline week 60 and week 108. One pre-requisite was to select only those patients who had all images completed.
# Ventricular volume was estimated from MRI images collected at baseline (BL), week 60 and week 108 for 428 subjects treated with ponesimod and 427 with teriflunomide. Lesions were identified using T2-weighted and Proton Density (PD) MRIs. Ventricles were segmented using lesion-filled T1 images using with the longitudinal stream in FreeSurfer 7. For each subject, scaled ventricular volume (V) was computed as the sum of lateral and 3rd ventricle volumes divided by the intracranial volume (ICV) and expressed as a percentage. Average V (V) and average change in V (ΔV) from baseline at weeks 60 and 108 were compared across treatment arms. Ventricular volumes were correlated with Multiple Sclerosis Functional Composite (MSFC), Paced Auditory Serial Addition Test (PASAT), Average Timed 25 Foot Walk (T25FW), Average 9-Hole Peg Test (9-HPT), Single Digit Modality Test (SDMT), FSIQ-RMS and Expanded Disability Score (EDSS).
# [4] = system: adult subjects with relapsing MS; experiment: Phase III study ponesimod 20 mg vs teriflunomide 14 mg: treatment-emergent adverse events (Safety Set)
# Description: A prospective, multicenter, randomized, double-blind, active controlled, parallel-group, phase III, superiority study was conducted.
# The treatment period consisted of an up-titration period (from Day 1 to 14) and a maintenance period (Day 15 until EOT).
# To reduce the first-dose effect of ponesimod, an up-titration scheme was implemented from Day 1 to Day 14: • Days 1 and 2; 2 mg. • Days 3 and 4; 3 mg. • Days 5 and 6; 4 mg. • Day 7; 5 mg. • Day 8; 6 mg. • Day 9; 7 mg. • Day 10; 8 mg. • Day 11; 9 mg. • Days 12, 13, and 14; 10 mg. • Day 15 until EOT; 20 mg.
# The Safety Set (SAF) included all randomized subjects who received at least one dose of study treatment. Subjects were analyzed based on actual treatment taken, not randomized treatment.
# [5] = ponesimod 20 mg N=565, teriflunomide 14 mg N=566, Safety Set
# [6] = ponesimod 20 mg, teriflunomide 14 mg
# [7] = week 60 and week 108 vs baseline, ponesimod n=428, teriflunomide n=427
# [8] = Day 1, ponesimod N=565, teriflunomide N=566, Safety Set
# [9] = treatment-emergent, ponesimod 20 mg N=565, teriflunomide 14 mg N=566, Safety Set
structure (smiles),measurement,setting,value
"CCC/N=C1\S/C(=C\c2ccc(OC[C@H](O)CO)c(Cl)c2)C(=O)N1c1ccccc1C [ponesimod, (R)-5-[3-chloro-4-(2,3-dihydroxy-propoxy)-benz[Z]ylidene]-2-([Z]-propylimino)-3-o-tolyl-thiazolidin-4-one]",Premature discontinuation: Death,[1]; [5],0 n
same,Subjects discontinued due to AEs or tolerability related reasons,[1]; [6],6.5%
same,Mean heart rate reduction compared to pre-dose (maximum),"[2]; Day 1, 2 hours post dose, 12-lead ECG",−8.7 bpm
same,2nd or higher degree AV block,"[2]; Day 1, first dose",No 2nd or higher degree AV block was observed
same,ECG HR effect: time of nadir / maximum mean heart rate reduction post-dose,"[2]; Day 1, first dose",2 h
same,Subjects meeting discharge criteria at 4 hours post-dose,"[2]; Day 1, first dose",ca. 99%
same,Subjects with asymptomatic post-dose HR≤40 bpm,"[2]; Day 1, all had pre-treatment HR <55 bpm",3 subjects
same,Rate of increase in ventricular volume lower compared to teriflunomide,[3]; week 60,60%
same,"Difference in ventricular volume increase, ponesimod minus teriflunomide (Δ60V^pon−Δ60V^ter)","[3]; week 60, p<0.001",−0.025%
same,"Average change in scaled ventricular volume from baseline (Δ60V), percentage of ICV","[3]; week 60, p<0.001 vs baseline, ponesimod n=428, teriflunomide n=427",0.026%
same,Reduction of atrophy compared to teriflunomide (FIGS. 4-6; 3rd and lateral ventricle),[3]; [7],greater
same,Ventricular enlargement compared to teriflunomide (FIG. 3),[3]; [7],less
same,Rate of increase in ventricular volume lower compared to teriflunomide,[3]; week 108,45%
same,"Difference in ventricular volume increase, ponesimod minus teriflunomide (Δ108V^pon−Δ108V^ter)","[3]; week 108, p<0.001",0.043%
same,"Average change in scaled ventricular volume from baseline (Δ108V), percentage of ICV","[3]; week 108, p<0.001 vs baseline, ponesimod n=428, teriflunomide n=427",0.067%
same,Incidence of treatment-emergent heart rate and rhythm (including hypotension) AESIs on Day 1,"[4]; Day 1, ponesimod 20 mg arm, teriflunomide 14 mg arm",2.1%
same,AESI effect on heart rate and rhythm (including hypotension) on Day 1: Subjects with at least one AE,[4]; [8],12(2.1) n (%)
same,"AESI heart rate and rhythm on Day 1, PT: Atrioventricular block first degree",[4]; [8],3(0.5) n (%)
same,"AESI heart rate and rhythm on Day 1, PT: Bradycardia",[4]; [8],4(0.7) n (%)
same,"AESI heart rate and rhythm on Day 1, PT: Bundle branch block left",[4]; [8],1(0.2) n (%)
same,"AESI heart rate and rhythm on Day 1, PT: Bundle branch block right",[4]; [8],1(0.2) n (%)
same,"AESI heart rate and rhythm on Day 1, PT: Defect conduction intraventricular",[4]; [8],2(0.4) n (%)
same,"AESI heart rate and rhythm on Day 1, PT: Electrocardiogram QT prolonged",[4]; [8],0 n (%)
same,"AESI heart rate and rhythm on Day 1, PT: Presyncope",[4]; [8],0 n (%)
same,"AESI heart rate and rhythm on Day 1, PT: Sinus arrhythmia",[4]; [8],1(0.2) n (%)
same,"AESI heart rate and rhythm on Day 1, PT: Sinus bradycardia",[4]; [8],1(0.2) n (%)
same,Treatment-emergent AESI: Infection,"[4]; only if serious or severe, ponesimod 20 mg N=565, teriflunomide 14 mg N=566, Safety Set",9(1.6) n (%)
same,TEAEs leading to premature discontinuation of study drug: Subjects with at least one AE,[4]; [5],49(8.7) n (%)
same,"TEAEs leading to premature discontinuation, SOC: Blood and lymphatic system disorders",[4]; [5],3(0.5) n (%)
same,"TEAEs leading to premature discontinuation, SOC: Cardiac disorders",[4]; [5],1(0.2) n (%)
same,"TEAEs leading to premature discontinuation, SOC: Eye disorders",[4]; [5],5(0.9) n (%)
same,"TEAEs leading to premature discontinuation, SOC: Gastrointestinal disorders",[4]; [5],4(0.7) n (%)
same,"TEAEs leading to premature discontinuation, SOC: General disorders and administration site conditions",[4]; [5],3(0.5) n (%)
same,"TEAEs leading to premature discontinuation, SOC: Hepatobiliary disorders",[4]; [5],3(0.5) n (%)
same,"TEAEs leading to premature discontinuation, SOC: Investigations",[4]; [5],12(2.1) n (%)
same,"TEAEs leading to premature discontinuation, SOC: Musculoskeletal and connective tissue disorders",[4]; [5],1(0.2) n (%)
same,"TEAEs leading to premature discontinuation, SOC: Neoplasms benign, malignant and unspecified (incl cysts and polyps)",[4]; [5],1(0.2) n (%)
same,"TEAEs leading to premature discontinuation, SOC: Nervous system disorders",[4]; [5],2(0.4) n (%)
same,"TEAEs leading to premature discontinuation, SOC: Pregnancy, puerperium and perinatal conditions",[4]; [5],3(0.5) n (%)
same,"TEAEs leading to premature discontinuation, SOC: Psychiatric disorders",[4]; [5],1(0.2) n (%)
same,"TEAEs leading to premature discontinuation, SOC: Reproductive system and breast disorders",[4]; [5],0 n (%)
same,"TEAEs leading to premature discontinuation, SOC: Respiratory, thoracic and mediastinal disorders",[4]; [5],7(1.2) n (%)
same,"TEAEs leading to premature discontinuation, SOC: Skin and subcutaneous tissue disorders",[4]; [5],1(0.2) n (%)
same,"TEAEs leading to premature discontinuation, SOC: Social circumstances",[4]; [5],2(0.4) n (%)
same,"TEAEs leading to premature discontinuation, SOC: Surgical and medical procedures",[4]; [5],0 n (%)
same,"TEAEs leading to premature discontinuation, SOC: Vascular disorders",[4]; [5],3(0.5) n (%)
same,Treatment-emergent AESI: Effect on heart rate and rhythm (including hypotension),[4]; [5],29(5.1) n (%)
same,Treatment-emergent AESI: Hepatobiliary disorders/Liver enzyme abnormality,[4]; [5],145(25.7) n (%)
same,Treatment-emergent AESI: Herpetic infection,[4]; [5],27(4.8) n (%)
same,Treatment-emergent AESI: Hypertension,[4]; [5],57(10.1) n (%)
same,Treatment-emergent AESI: Macular edema,[4]; [5],6(1.1) n (%)
same,Treatment-emergent AESI: Non-skin malignancy,[4]; [5],1(0.2) n (%)
same,Treatment-emergent AESI: Pulmonary events,[4]; [5],45(8.0) n (%)
same,Treatment-emergent AESI: Seizure,[4]; [5],8(1.4) n (%)
same,Treatment-emergent AESI: Skin malignancy,[4]; [5],5(0.9) n (%)
same,AESI category hepatobiliary disorders/liver enzyme abnormality,[4]; [6],25.7%
same,AESI category hypertension,[4]; [6],10.1%
same,AESI category pulmonary events,[4]; [6],8.0%
same,Proportion of subjects who experienced at least one SAE,[4]; [6],8.7%
same,Proportion of subjects who experienced at least one TEAE,[4]; [6],88.8%
same,TEAE: ALT increased,[4]; [6],19.5%
same,TEAE: headache,[4]; [6],11.5%
same,TEAE: nasopharyngitis,[4]; [6],19.3%
same,TEAE: upper respiratory tract infection,[4]; [6],10.6%
same,TEAEs leading to premature treatment discontinuation,[4]; [6],8.7%
same,Subjects with at least one AE,[4]; [9],502(88.8) n (%)
same,Subjects with at least one AE leading to study drug discontinuation,[4]; [9],49(8.7) n (%)
same,Subjects with at least one Drug-Related AE,[4]; [9],278(49.2) n (%)
same,Subjects with at least one Fatal AE,[4]; [9],0 n (%)
same,Subjects with at least one Serious AE,[4]; [9],49(8.7) n (%)
same,Subjects with at least one Severe AE,[4]; [9],39(6.9) n (%)
